Experimental findings from publication PMC4979877 (2016) are described below.

This assay deals with non-cognate duplex (DNA, duplex) GGGTGAGGAGGAGGGAGATCGGTC/TGACCGATCTCCCTCCTCCTCACCC
Kind of assay: fluorescence titration. The following applies: 0.025 M Tris-HCl, pH 7.5, room temperature; probe 12 µM; fluorescence only 1.5-fold up.

For the compound `CN(C)CCCNC(=O)CCNC(=O)c1cc(NC(=O)c2cc(NC(=O)c3cc(NC(=O)c4cc(NC(=O)C(N)CCNC(=O)c5cc(NC(=O)c6cc(NC(=O)c7cc(NC(=O)c8nc(NC(=O)CCCNC(=O)CCc9cn(-c%10cc%11ccc(O)cc%11oc%10=O)nn9)cn8C)cn7C)cn6C)cn5C)cn4C)cn3C)cn2C)cn1C` (stereo not shown), the binding entry was “weak”.
